Measured values taken from article PMC7026641, “Identification of the 3-amino-3-carboxypropyl (acp) transferase enzyme responsible for acp^3U formation at position 47 in Escherichia coli tRNAs” (Nucleic Acids Research, 2019).

Key:
[1] = target: T1, YfiP (TuaA, tRNA U47 acp transferase A) (Escherichia coli, UniProt Q47319); test: ITC, […]°C, one-site binding model; also in vitro acp transfer to tRNA
T1 construct: gene tapT; E. coli YfiP with a C-terminal 6xHis-tag
T1 sequence (Q47319 1-232): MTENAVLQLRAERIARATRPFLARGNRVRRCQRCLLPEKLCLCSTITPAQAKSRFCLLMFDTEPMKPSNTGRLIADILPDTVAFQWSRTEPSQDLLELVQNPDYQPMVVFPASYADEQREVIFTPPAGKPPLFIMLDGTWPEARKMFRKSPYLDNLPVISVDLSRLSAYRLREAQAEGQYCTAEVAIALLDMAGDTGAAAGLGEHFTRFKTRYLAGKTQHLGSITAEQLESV

[2] = target: T1, YfiP (TuaA, tRNA U47 acp transferase A); test: ITC, […]°C, one-site binding model

Row | Kd [2] [µM] | SMILES | Kd [1] [µM]
1 |  | C[S+](CC[C@H](N)C(=O)O)C[C@H]1O[C@@H](n2cnc3c(N)ncnc32)[C@H](O)[C@@H]1O (stereo partly drawn) [SAM, S-adenosyl methionine] | 32
2 | 131 | CSC[C@H]1O[C@@H](n2cnc3c(N)ncnc32)[C@H](O)[C@@H]1O [5-MTA, 5′-methyl 5′-deoxythioadenosine] | 
3 | 84 | Nc1ncnc2c1ncn2[C@@H]1O[C@H](CSCC[C@H](N)C(=O)O)[C@@H](O)[C@H]1O [SAH, S-adenosylhomocysteine] | 
